Test results taken from patent publication US20090023759A1, “Quinazoline Derivatives as Inhibitors of EGF and/or erbB2 Receptor Tyrosine Kinase” (priority 2005, published 2009).
pIC50: −log10 of the molar value.

How the values were obtained:
erbB2 tyrosine kinase = molecular target: T1, erbB2 tyrosine kinase (Homo sapiens, UniProt P04626); experiment: Test (a) protein tyrosine kinase phosphorylation assay, erbB2; type: biochemical; settings: ATP at Km concentration; read-out: IC50 Test (a): Inhibition of erbB2 tyrosine kinase protein phosphorylation
T1 construct: Recombinant intracellular fragments of EGFR, erbB2 and erbB4; made in house; host or cells: baculovirus/Sf21 insect cells (cleared lysate used)
Method: (§1) a) Protein Tyrosine Kinase phosphorylation Assays
(§2) This test measures the ability of a test compound to inhibit the phosphorylation of a tyrosine containing polypeptide substrate by EGFR, erbB2 and erbB4 tyrosine kinase enzyme.
(§3) Recombinant intracellular fragments of EGFR, erbB2 and erbB4 (accession numbers X00588, X03363 and L07868 respectively) were cloned and expressed in the baculovirus/Sf21 system. […]
(§4) Constitutive kinase activity of these recombinant proteins was determined by their ability to phosphorylate a synthetic peptide (made up of a random co-polymer of Glutamic Acid, Alanine and Tyrosine in the ratio of 6:3:1). […]
(§5) The immobilised phospho-peptide product of the reaction was detected by immunological methods. […] After further washing, HRP activity in each well of the plate was measured colorimetrically using 22′-Azino-di-[3-ethylbenzthiazoline sulfonate (6)]diammonium salt crystals (ABTS™ from Roche) as a substrate.
(§6) Quantification of colour development and thus enzyme activity was achieved by the measurement of absorbance at 405 nm on a Molecular Devices ThermoMax microplate reader. Kinase inhibition for a given compound was expressed as an IC50 value. […] The range of phosphorylation was calculated from the positive (vehicle plus ATP) and negative (vehicle minus ATP) control values.

EGFR tyrosine kinase = molecular target: T2, EGFR tyrosine kinase (Homo sapiens, UniProt P00533); experiment: Test (a) protein tyrosine kinase phosphorylation assay, EGFR; type: biochemical; settings: ATP at Km concentration; read-out: IC50 Test (a): Inhibition of EGFR tyrosine kinase protein phosphorylation
T2 construct: Recombinant intracellular fragments of EGFR, erbB2 and erbB4; made in house; host or cells: baculovirus/Sf21 insect cells (cleared lysate used)
Method: as §1, §2, §3, §4, §5, §6

[1] = molecular target: T3, erbB2 in a MCF7 derived cell line (Clone 24 cells) (Homo sapiens, UniProt P04626); experiment: Test (c) Clone 24 phospho-erbB2 cell assay; type: cell-based; settings: 4 hours with compound, read-out: IC50 Test (c): Inhibition of erbB2 tyrosine kinase protein phosphorylation
T3 construct: a cell line that overexpresses full length wild type erbB2 protein; expressed in transfected cells
Method: c) Clone 24 Phospho-erbB2 Cell Assay
This immunofluorescence end point assay measures the ability of a test compound to inhibit the phosphorylation of erbB2 in a MCF7 (breast carcinoma) derived cell line which was generated by transfecting MCF7 cells with the full length erbB2 gene using standard methods to give a cell line that overexpresses full length wild type erbB2 protein (hereinafter ‘Clone 24’ cells).
Clone 24 cells were cultured in Growth Medium (phenol red free Dulbecco's modified Eagle's medium (DMEM) containing 10% foetal bovine serum, 2 mM glutamine and 1.2 mg/ml G418) in a 7.5% CO2 air incubator at 37° C. […] Cell density was measured using a haemocytometer and viability was calculated using Trypan Blue solution before being further diluted in Growth Medium and seeded at a density of 1×10^4 cells per well (in 100 μl) into clear bottomed 96 well plates (Packard, No. 6005182). […]
Immunostaining was performed at room temperature. […] Plates were analysed within six hours of completing the immunostaining.
The Fluorescence signal is each well was measured using an Acumen Explorer Instrument (Acumen Bioscience Ltd.), a plate reader that can be used to rapidly quantitate features of images generated by laser-scanning. […]

T1 sequence (P04626 676-1255 limits assumed): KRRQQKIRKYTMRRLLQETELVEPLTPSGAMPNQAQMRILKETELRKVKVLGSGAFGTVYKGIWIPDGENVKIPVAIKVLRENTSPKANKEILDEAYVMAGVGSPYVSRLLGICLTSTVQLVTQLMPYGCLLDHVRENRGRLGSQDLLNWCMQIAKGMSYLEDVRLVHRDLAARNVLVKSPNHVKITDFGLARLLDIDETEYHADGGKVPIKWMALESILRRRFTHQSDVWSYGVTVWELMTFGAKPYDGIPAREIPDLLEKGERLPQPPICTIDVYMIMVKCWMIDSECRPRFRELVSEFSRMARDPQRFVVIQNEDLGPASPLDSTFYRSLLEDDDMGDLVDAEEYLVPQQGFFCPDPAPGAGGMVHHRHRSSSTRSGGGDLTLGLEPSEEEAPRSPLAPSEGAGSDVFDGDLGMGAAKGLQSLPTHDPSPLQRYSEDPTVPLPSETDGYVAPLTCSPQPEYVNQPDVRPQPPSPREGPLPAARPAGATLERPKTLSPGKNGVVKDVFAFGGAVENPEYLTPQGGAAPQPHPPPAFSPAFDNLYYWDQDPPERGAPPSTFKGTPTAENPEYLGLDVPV
T3 sequence (P04626 23-1255): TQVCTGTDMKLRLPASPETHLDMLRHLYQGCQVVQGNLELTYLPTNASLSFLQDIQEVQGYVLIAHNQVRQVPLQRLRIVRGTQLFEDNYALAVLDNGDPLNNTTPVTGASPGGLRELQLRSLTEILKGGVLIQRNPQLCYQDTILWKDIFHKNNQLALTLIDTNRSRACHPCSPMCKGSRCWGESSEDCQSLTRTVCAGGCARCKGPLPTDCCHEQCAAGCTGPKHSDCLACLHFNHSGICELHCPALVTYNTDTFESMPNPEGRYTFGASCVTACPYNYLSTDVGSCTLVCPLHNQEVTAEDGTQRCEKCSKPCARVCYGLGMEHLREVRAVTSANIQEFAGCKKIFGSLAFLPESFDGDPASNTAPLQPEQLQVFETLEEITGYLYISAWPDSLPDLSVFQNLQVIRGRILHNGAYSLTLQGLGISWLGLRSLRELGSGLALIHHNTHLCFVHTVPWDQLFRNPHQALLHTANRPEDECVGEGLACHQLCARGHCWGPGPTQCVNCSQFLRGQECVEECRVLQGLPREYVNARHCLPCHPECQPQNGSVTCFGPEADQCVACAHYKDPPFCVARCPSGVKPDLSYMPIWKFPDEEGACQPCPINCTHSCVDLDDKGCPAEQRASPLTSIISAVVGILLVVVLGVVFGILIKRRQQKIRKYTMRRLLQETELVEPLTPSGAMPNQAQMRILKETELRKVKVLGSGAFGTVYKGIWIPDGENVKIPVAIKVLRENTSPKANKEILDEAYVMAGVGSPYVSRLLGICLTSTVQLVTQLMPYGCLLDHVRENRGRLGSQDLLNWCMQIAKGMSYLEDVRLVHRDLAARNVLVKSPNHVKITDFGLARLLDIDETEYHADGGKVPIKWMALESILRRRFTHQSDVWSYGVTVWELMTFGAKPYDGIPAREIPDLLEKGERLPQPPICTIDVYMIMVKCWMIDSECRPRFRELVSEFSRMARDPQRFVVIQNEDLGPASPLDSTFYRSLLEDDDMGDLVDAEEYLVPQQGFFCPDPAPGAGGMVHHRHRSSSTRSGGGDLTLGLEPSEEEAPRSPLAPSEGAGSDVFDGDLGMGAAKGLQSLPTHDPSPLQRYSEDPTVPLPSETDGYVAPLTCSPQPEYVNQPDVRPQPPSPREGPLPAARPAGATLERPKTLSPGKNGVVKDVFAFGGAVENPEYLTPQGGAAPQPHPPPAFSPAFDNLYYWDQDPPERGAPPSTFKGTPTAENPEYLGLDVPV
T2 sequence (P00533 669-1210 limits assumed): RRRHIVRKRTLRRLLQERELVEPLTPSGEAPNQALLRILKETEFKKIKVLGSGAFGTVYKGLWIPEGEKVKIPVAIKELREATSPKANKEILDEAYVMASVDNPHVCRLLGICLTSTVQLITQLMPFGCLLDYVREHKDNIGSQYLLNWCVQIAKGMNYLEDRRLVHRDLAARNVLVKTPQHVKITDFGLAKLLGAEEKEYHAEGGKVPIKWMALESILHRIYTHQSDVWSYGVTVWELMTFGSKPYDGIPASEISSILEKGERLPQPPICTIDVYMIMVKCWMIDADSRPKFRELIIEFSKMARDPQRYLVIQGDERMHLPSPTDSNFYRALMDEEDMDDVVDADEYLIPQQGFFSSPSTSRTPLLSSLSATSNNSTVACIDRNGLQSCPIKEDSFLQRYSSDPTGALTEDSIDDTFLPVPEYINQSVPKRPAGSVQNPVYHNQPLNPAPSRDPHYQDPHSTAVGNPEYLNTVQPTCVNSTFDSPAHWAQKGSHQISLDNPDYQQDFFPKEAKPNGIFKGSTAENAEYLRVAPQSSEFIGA

SMILES | pIC50 (erbB2 tyrosine kinase) | pIC50 (EGFR tyrosine kinase) | pIC50 [1]
C[C@H](CN(C)C(=O)CO)Oc1cccc2ncnc(Nc3ccc4c(ccn4Cc4ccccn4)c3)c12 [Example 1, 2-Hydroxy-N-methyl-N-{(2R)-2-[(4-{[1-(pyridin-2-ylmethyl)-1H-indol-5-yl]amino}quinazolin-5-yl)oxy]propyl}acetamide] | 7.15 | 6.11 | 6.00
C[C@H](COc1cccc2ncnc(Nc3ccc4c(ccn4Cc4ccccn4)c3)c12)N(C)C(=O)CO [Example 2, 2-Hydroxy-N-methyl-N-{(R)-1-methyl-2-[4-(1-pyridin-2-ylmethyl-1H-indol-5-ylamino)-quinazolin-5-yloxy]-ethyl}-acetamide] | 8.30 | 7.20 | 8.70
